We go through two molecules from article PMC6404510 (Neural Regeneration Research, 2019).

Data set [1] relates to NeuN+ neurons. As to the kind of experiment: Fluorescence tracing of intranasal Alex546-Ins in rat brain sections. The data set is classed as in vivo. The settings on record: rat brain sections after intranasal Alex546-Ins.
For data set [2] the following is noted: monkeys, intranasal administration; ref Thorne et al., 2008; cited from earlier work.

As to “Alexa Fluor 546-labeled insulin [Alex546-Ins]”, in data set [1], the “Cell type binding Alex546-Ins (NeuN double-immunostaining)” value is reported as “on the membrane of NeuN^+ neurons”.

B1: I^125-interferon-β1b (protein, UniProt P01574 22-187, looked up, variant C17S)
Interferon beta: MSYNLLGFLQRSSNFQSQKLLWQLNGRLEYCLKDRMNFDIPEEIKQLQQFQKEDAALTIYEMLQNIFAIFRQDSSSTGWNETIVENLLANVYHQINHLKTVLEEKLEKEDFTRGKLMSSLHLKRYYGRILHYLKAKEYSHCAWTIVRVEILRNFYFINRLTGYLRN
modifications: I-125 radiolabel
B1: the “Time of earliest detection in CSF” value in data set [2] is not above 30 min.
